The target in one assay is T1, RARγ (Homo sapiens, UniProt P13631).
T1 sequence (P13631 1-454): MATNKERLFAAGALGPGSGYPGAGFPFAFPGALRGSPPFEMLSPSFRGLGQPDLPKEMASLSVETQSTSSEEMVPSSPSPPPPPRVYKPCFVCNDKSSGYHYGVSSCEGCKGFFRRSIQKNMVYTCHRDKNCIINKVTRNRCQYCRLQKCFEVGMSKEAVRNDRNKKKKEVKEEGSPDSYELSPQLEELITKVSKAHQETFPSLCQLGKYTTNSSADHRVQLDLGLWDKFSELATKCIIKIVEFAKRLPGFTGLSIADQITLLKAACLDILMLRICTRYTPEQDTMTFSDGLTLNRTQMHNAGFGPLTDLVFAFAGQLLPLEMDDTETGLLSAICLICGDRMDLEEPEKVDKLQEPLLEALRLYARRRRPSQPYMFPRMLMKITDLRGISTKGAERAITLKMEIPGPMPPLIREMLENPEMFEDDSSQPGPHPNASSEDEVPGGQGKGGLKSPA
In words: RAR binding, RARγ. The settings on record: Kd from IC50 by Cheng-Prussof equation. On the procedure: (§1) Non-specific binding was defined as that binding remaining in the presence of 500 nM of the appropriate unlabelled compound. At the end of the incubation period, bound from free ligand were separated. The amount of bound tritiated retinoids was determined by liquid scintillation counting of an aliquot (700 μL) of the supernatant fluid or the hydroxylapatite pellet.
(§2) After correcting for non-specific binding, IC50 values were determined. […] The IC50 value was determined graphically from a log-logit plot of the data. The Kd values were determined by application of the Cheng-Prussof equation to the IC50 values, the labeled ligand concentration and the Kd of the labeled ligand.

The next assay deals with T2, RARβ (Homo sapiens, UniProt P10826).
T2 sequence (P10826 1-448 isoform P10826-2): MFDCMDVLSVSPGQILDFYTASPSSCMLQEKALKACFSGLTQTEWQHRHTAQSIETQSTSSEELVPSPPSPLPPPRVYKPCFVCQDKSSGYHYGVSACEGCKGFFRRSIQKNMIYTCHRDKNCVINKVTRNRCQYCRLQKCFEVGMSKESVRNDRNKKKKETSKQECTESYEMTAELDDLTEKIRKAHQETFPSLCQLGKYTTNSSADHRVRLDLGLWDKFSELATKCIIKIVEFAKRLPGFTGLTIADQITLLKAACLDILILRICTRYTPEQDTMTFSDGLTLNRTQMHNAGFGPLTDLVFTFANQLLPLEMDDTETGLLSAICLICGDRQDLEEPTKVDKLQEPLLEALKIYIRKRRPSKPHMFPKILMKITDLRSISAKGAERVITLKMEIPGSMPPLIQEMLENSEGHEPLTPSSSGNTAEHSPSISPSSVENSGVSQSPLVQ
In words: RAR binding, RARβ. The settings on record: Kd from IC50 by Cheng-Prussof equation. The method, then:
as §1, §2

Another assay has as its target T3, RARα (Homo sapiens, UniProt P10276).
T3 sequence (P10276 1-462): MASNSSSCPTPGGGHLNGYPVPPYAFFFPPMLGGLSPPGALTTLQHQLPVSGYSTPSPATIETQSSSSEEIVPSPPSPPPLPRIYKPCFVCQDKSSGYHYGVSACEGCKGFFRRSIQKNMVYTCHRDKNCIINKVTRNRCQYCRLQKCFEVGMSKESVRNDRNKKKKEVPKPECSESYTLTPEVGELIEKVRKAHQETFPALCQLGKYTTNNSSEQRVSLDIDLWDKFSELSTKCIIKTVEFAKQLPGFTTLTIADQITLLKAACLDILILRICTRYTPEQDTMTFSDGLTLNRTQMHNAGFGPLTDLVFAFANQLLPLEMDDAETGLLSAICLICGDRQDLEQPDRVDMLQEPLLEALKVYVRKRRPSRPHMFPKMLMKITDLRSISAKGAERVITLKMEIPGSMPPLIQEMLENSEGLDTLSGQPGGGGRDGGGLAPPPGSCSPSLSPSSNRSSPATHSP
In words: RAR binding, RARα. The settings on record: Kd from IC50 by Cheng-Prussof equation. On the procedure: as §1, §2

For the next assay, the system named is RARs. In words: co-transfection assay, activity on RARs (overall statement). The settings on record: comparison compound. The assay is classed as cell-based, human. The method, then:
Utilizing the "cis-trans" or "co-transfection" assay described by Evans et al., Science, 240:889-95 (May 13, 1988), the disclosure of which is herein incorporated by reference, the RAR antagonist compounds of the present invention were tested and found to have strong, specific activity as antagonists of RARs in the presence of RAR agonists. This assay is described in further detail in U.S. Pat. Nos. 4,981,784 and 5,071,773, the disclosures of which are incorporated herein by reference.
In the co-transfection assay, a cloned cDNA for an IR (e.g., human RARα:, RARβ, RXRγ) under the control of a constitutive promoter (e.g., the SV 40 promoter) is introduced by transfection (a procedure to induce cells to take up foreign genes) into a background cell substantially devoid of endogenous IRs. This introduced gene directs the recipient cells to make the IR protein of interest. A second gene is also introduced (co-transfected) into the same cells in conjunction with the IR gene. […]
The co-transfection assay can detect small molecule agonists or antagonists of target IRs. […] This activity can be conveniently measured, e.g., by increasing luciferase production, which reflects compound-dependent, IR-mediated increases in reporter transcription. […]

One compound from patent US5998654A, “Retinoic acid receptor antagonist compounds and methods” (Ligand Pharmaceuticals Incorporated, priority 1997, dated 1999) can be followed below.

The structures appear in SMILES notation.

One may read the Kd as the equilibrium constant for the complex coming apart. Take `COc1c(C(C)(C)C)cc(/C(C)=C/C=C/C(C)=C/C(=O)O)cc1C(C)(C)C` [A, reference compound]: the Kd came to 500 pM at RARγ, 400 pM at RARβ and 1000 pM on RARα. Besides, the “type of activity on RAR (in words)” value in the assay on RARs is on record as “displays only activity as an RAR? agonist”.
